Measurements taken from patent publication US9738634B2, “Heterocyclic amide compound and herbicide” (SYNGENTA PARTICIPATIONS AG, priority 2013, dated 2017).

How the values were obtained:
Assay type in all cases: in vivo
Conditions in all cases: treatment dosage 320 g/ha
[1] = tested on: common wind-grass; test: Test Example 3: weedkilling efficacy through soil treatment; J: common wind-grass
Method in brief: (§1)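 Crop and weed responses were judged three weeks after a uniform surface spray of the water-diluted emulsion at the given g/ha rate. Seeds sat beneath about 1.5 cm of sterilized diluvial soil, and boxes stood in a greenhouse at 25 to 30° C.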

[2] = tested on: common wind-grass; test: Test Example 4: weedkilling efficacy by foliar treatment; J: common wind-grass
Method in brief: (§2)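 Seeds are spot-sown into sterilized diluvial soil and covered with about 1.5 cm of soil. After 14 days' greenhouse growth at 25 to 30° C, plants are sprayed on stems and leaves with diluted emulsion at the stated g/ha rate, then scored at 3 weeks.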

[3] = tested on: wild oat; test: Test Example 4: weedkilling efficacy by foliar treatment; G: wild oat
Method in brief: as §2

[4] = tested on: crabgrass; test: Test Example 4: weedkilling efficacy by foliar treatment; D: crabgrass
Method in brief: as §2

[5] = tested on: catchweed; test: Test Example 3: weedkilling efficacy through soil treatment; O: catchweed
Method in brief: as §1

[6] = tested on: wheat; test: Test Example 3: soil treatment, effect on crop; e: wheat
Method in brief: as §1

[7] = tested on: Indian mallow; test: Test Example 4: weedkilling efficacy by foliar treatment; K: Indian mallow
Method in brief: as §2

[8] = tested on: Italian ryegrass; test: Test Example 4: weedkilling efficacy by foliar treatment; I: Italian ryegrass
Method in brief: as §2

[9] = tested on: directly sown rice; test: Test Example 3: soil treatment, effect on crop; b: directly sown rice
Method in brief: as §1

[10] = tested on: green foxtail; test: Test Example 4: weedkilling efficacy by foliar treatment; E: green foxtail
Method in brief: as §2

[11] = tested on: corn; test: Test Example 3: soil treatment, effect on crop; c: corn
Method in brief: as §1

[12] = tested on: fig-leafed goosefoot; test: Test Example 3: weedkilling efficacy through soil treatment; M: fig-leafed goosefoot
Method in brief: as §1

[13] = tested on: black-grass; test: Test Example 4: weedkilling efficacy by foliar treatment; H: black-grass
Method in brief: as §2

[14] = tested on: catchweed; test: Test Example 4: weedkilling efficacy by foliar treatment; O: catchweed
Method in brief: as §2

[15] = tested on: chickweed; test: Test Example 4: weedkilling efficacy by foliar treatment; N: chickweed
Method in brief: as §2

[16] = tested on: crabgrass; test: Test Example 3: weedkilling efficacy through soil treatment; D: crabgrass
Method in brief: as §1

[17] = tested on: beet; test: Test Example 4: foliar treatment, effect on crop; f: beet
Method in brief: as §2

[18] = tested on: redroot pigweed; test: Test Example 4: weedkilling efficacy by foliar treatment; L: redroot pigweed
Method in brief: as §2

[19] = tested on: wheat; test: Test Example 4: foliar treatment, effect on crop; e: wheat
Method in brief: as §2

[20] = tested on: fig-leafed goosefoot; test: Test Example 4: weedkilling efficacy by foliar treatment; M: fig-leafed goosefoot
Method in brief: as §2

[21] = tested on: barnyard grass; test: Test Example 1: weedkilling efficacy, preemergent weed treatment in the submerged state; A: barnyard grass
Method in brief: (§3)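 Pots of alluvial soil were flooded to a 4 cm depth. Mixed weed seeds were sown and 2.5 leaf-stage rice seedlings transplanted. On sowing day, water-diluted emulsion was applied to the water surface (dose in g/ha). After 3 weeks at 25–30 °C, effects were rated.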

[22] = tested on: barnyard grass; test: Test Example 4: weedkilling efficacy by foliar treatment; F: barnyard grass
Method in brief: as §2

[23] = tested on: directly sown rice; test: Test Example 4: foliar treatment, effect on crop; b: directly sown rice
Method in brief: as §2

[24] = tested on: birds-eye speedwell; test: Test Example 3: weedkilling efficacy through soil treatment; p: birds-eye speedwell
Method in brief: as §1

[25] = tested on: oval-leafed pondweed; test: Test Example 2: weedkilling efficacy, growth period weed treatment in the submerged state; C: oval-leafed pondweed
Method in brief: (§4)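 Weeds treated at the 1-2 leaf stage by application of diluted emulsion onto floodwater (4 cm depth, alluvial soil) at specified g/ha. Grown in greenhouse at 25 to 30° C; herbicidal effect rated three weeks after treatment.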

[26] = tested on: Italian ryegrass; test: Test Example 3: weedkilling efficacy through soil treatment; I: Italian ryegrass
Method in brief: as §1

[27] = tested on: green foxtail; test: Test Example 3: weedkilling efficacy through soil treatment; E: green foxtail
Method in brief: as §1

[28] = tested on: corn; test: Test Example 4: foliar treatment, effect on crop; c: corn
Method in brief: as §2

[29] = tested on: rapeseed; test: Test Example 3: soil treatment, effect on crop; g: rapeseed
Method in brief: as §1

[30] = tested on: redroot pigweed; test: Test Example 3: weedkilling efficacy through soil treatment; L: redroot pigweed
Method in brief: as §1

[31] = tested on: bulrush; test: Test Example 1: weedkilling efficacy, preemergent weed treatment in the submerged state; B: bulrush
Method in brief: as §3

[32] = tested on: barnyard grass; test: Test Example 2: weedkilling efficacy, growth period weed treatment in the submerged state; A: barnyard grass
Method in brief: as §4

[33] = tested on: barnyard grass; test: Test Example 3: weedkilling efficacy through soil treatment; F: barnyard grass
Method in brief: as §1

[34] = tested on: transplanted rice; test: Test Example 1: preemergent weed treatment in the submerged state, effect on crop; a: transplanted rice
Method in brief: as §3

[35] = tested on: Indian mallow; test: Test Example 3: weedkilling efficacy through soil treatment; K: Indian mallow
Method in brief: as §1

[36] = tested on: soybean; test: Test Example 4: foliar treatment, effect on crop; d: soybean
Method in brief: as §2

[37] = tested on: black-grass; test: Test Example 3: weedkilling efficacy through soil treatment; H: black-grass
Method in brief: as §1

[38] = tested on: rapeseed; test: Test Example 4: foliar treatment, effect on crop; g: rapeseed
Method in brief: as §2

[39] = tested on: chickweed; test: Test Example 3: weedkilling efficacy through soil treatment; N: chickweed
Method in brief: as §1

[40] = tested on: beet; test: Test Example 3: soil treatment, effect on crop; f: beet
Method in brief: as §1

[41] = tested on: bulrush; test: Test Example 2: weedkilling efficacy, growth period weed treatment in the submerged state; B: bulrush
Method in brief: as §4

[42] = tested on: birds-eye speedwell; test: Test Example 4: weedkilling efficacy by foliar treatment; p: birds-eye speedwell
Method in brief: as §2

[43] = tested on: oval-leafed pondweed; test: Test Example 1: weedkilling efficacy, preemergent weed treatment in the submerged state; C: oval-leafed pondweed
Method in brief: as §3

[44] = tested on: soybean; test: Test Example 3: soil treatment, effect on crop; d: soybean
Method in brief: as §1

[45] = tested on: wild oat; test: Test Example 3: weedkilling efficacy through soil treatment; G: wild oat
Method in brief: as §1

CCc1cc(F)nc(NC(=O)C(C)(C)N2COC(C)=C(c3ccccc3)C2=O)c1 [B-2-39]
J (common wind-grass) weedkilling efficacy grade [1]: 5 (weed kill ratio 90% or more, (practically complete withering))
J (common wind-grass) weedkilling efficacy grade [2]: 5 (weed kill ratio 90% or more, (practically complete withering))
G (wild oat) weedkilling efficacy grade [3]: 4 (weed kill ratio 70% or more, less than 90%)
D (crabgrass) weedkilling efficacy grade [4]: 5 (weed kill ratio 90% or more, (practically complete withering))
O (catchweed) weedkilling efficacy grade [5]: 4 (weed kill ratio 70% or more, less than 90%)
e (wheat) effect on crop grade [6]: 0 (weed kill ratio 5% or less (practically no effect))
K (Indian mallow) weedkilling efficacy grade [7]: 4 (weed kill ratio 70% or more, less than 90%)
I (Italian ryegrass) weedkilling efficacy grade [8]: 5 (weed kill ratio 90% or more, (practically complete withering))
b (directly sown rice) effect on crop grade [9]: 4 (weed kill ratio 70% or more, less than 90%)
E (green foxtail) weedkilling efficacy grade [10]: 5 (weed kill ratio 90% or more, (practically complete withering))
c (corn) effect on crop grade [11]: 0 (weed kill ratio 5% or less (practically no effect))
M (fig-leafed goosefoot) weedkilling efficacy grade [12]: 4 (weed kill ratio 70% or more, less than 90%)
H (black-grass) weedkilling efficacy grade [13]: 5 (weed kill ratio 90% or more, (practically complete withering))
O (catchweed) weedkilling efficacy grade [14]: 4 (weed kill ratio 70% or more, less than 90%)
N (chickweed) weedkilling efficacy grade [15]: 4 (weed kill ratio 70% or more, less than 90%)
D (crabgrass) weedkilling efficacy grade [16]: 5 (weed kill ratio 90% or more, (practically complete withering))
f (beet) effect on crop grade [17]: 4 (weed kill ratio 70% or more, less than 90%)
L (redroot pigweed) weedkilling efficacy grade [18]: 3 (weed kill ratio 40% or more, less than 70%)
e (wheat) effect on crop grade [19]: 0 (weed kill ratio 5% or less (practically no effect))
M (fig-leafed goosefoot) weedkilling efficacy grade [20]: 5 (weed kill ratio 90% or more, (practically complete withering))
A (barnyard grass) weedkilling efficacy grade [21]: 5 (weed kill ratio 90% or more, (practically complete withering))
F (barnyard grass) weedkilling efficacy grade [22]: 5 (weed kill ratio 90% or more, (practically complete withering))
b (directly sown rice) effect on crop grade [23]: 4 (weed kill ratio 70% or more, less than 90%)
P (birds-eye speedwell) weedkilling efficacy grade [24]: 5 (weed kill ratio 90% or more, (practically complete withering))
C (oval-leafed pondweed) weedkilling efficacy grade [25]: 5 (weed kill ratio 90% or more, (practically complete withering))
I (Italian ryegrass) weedkilling efficacy grade [26]: 5 (weed kill ratio 90% or more, (practically complete withering))
E (green foxtail) weedkilling efficacy grade [27]: 5 (weed kill ratio 90% or more, (practically complete withering))
c (corn) effect on crop grade [28]: 4 (weed kill ratio 70% or more, less than 90%)
g (rapeseed) effect on crop grade [29]: 4 (weed kill ratio 70% or more, less than 90%)
L (redroot pigweed) weedkilling efficacy grade [30]: 3 (weed kill ratio 40% or more, less than 70%)
B (bulrush) weedkilling efficacy grade [31]: 5 (weed kill ratio 90% or more, (practically complete withering))
A (barnyard grass) weedkilling efficacy grade [32]: 5 (weed kill ratio 90% or more, (practically complete withering))
F (barnyard grass) weedkilling efficacy grade [33]: 5 (weed kill ratio 90% or more, (practically complete withering))
a (transplanted rice) effect on crop grade [34]: 1 (weed kill ratio 5% or more, less than 20%)
K (Indian mallow) weedkilling efficacy grade [35]: 2 (weed kill ratio 20% or more, less than 40%)
d (soybean) effect on crop grade [36]: 4 (weed kill ratio 70% or more, less than 90%)
H (black-grass) weedkilling efficacy grade [37]: 5 (weed kill ratio 90% or more, (practically complete withering))
g (rapeseed) effect on crop grade [38]: 4 (weed kill ratio 70% or more, less than 90%)
N (chickweed) weedkilling efficacy grade [39]: 4 (weed kill ratio 70% or more, less than 90%)
f (beet) effect on crop grade [40]: 3 (weed kill ratio 40% or more, less than 70%)
B (bulrush) weedkilling efficacy grade [41]: 5 (weed kill ratio 90% or more, (practically complete withering))
P (birds-eye speedwell) weedkilling efficacy grade [42]: 5 (weed kill ratio 90% or more, (practically complete withering))
C (oval-leafed pondweed) weedkilling efficacy grade [43]: 5 (weed kill ratio 90% or more, (practically complete withering))
d (soybean) effect on crop grade [44]: 0 (weed kill ratio 5% or less (practically no effect))
G (wild oat) weedkilling efficacy grade [45]: 5 (weed kill ratio 90% or more, (practically complete withering))
